In US20150148377A1, “Quinoline Derivatives” (NOVARTIS AG, priority 2011, published 2015):

Tests used:
[1] = target: T1, PI3K alpha (Homo sapiens, UniProt P42336); test: Enzymatic PI3K alpha isoform inhibition (lipid kinase activity, Kinase-Glo); assay type: biochemical; conditions: enzymatic assay
T1 construct: His tag (C); made in house; host or cells: baculovirus; Tn5 (Trichoplusia ni) or TiniPro insect cells
How it was run: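 Lipid kinase reaction with 10 nM PI3Kα, 1 μM ATP and 10 μg/mL phosphatidylinositol in pH 7.5 Tris with MgCl2, NaCl, CHAPS and DTT, run 60 min at room temperature. Remaining ATP read by Kinase-Glo luminescence. IC50 from 8-point 4-parameter logistic fits.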

[2] = target: T2, PI3K delta (Homo sapiens, UniProt O00329); test: Enzymatic PI3K delta isoform inhibition (lipid kinase activity, Kinase-Glo); assay type: biochemical; conditions: enzymatic assay
T2 construct: for the full-length p110-d subunit are generated and fused by overlapping PCR; His tag (C); made in house; host or cells: baculovirus; Tn5 (Trichoplusia ni) or TiniPro insect cells
T2 sequence (O00329 with tags, fused parts or gaps limits assumed): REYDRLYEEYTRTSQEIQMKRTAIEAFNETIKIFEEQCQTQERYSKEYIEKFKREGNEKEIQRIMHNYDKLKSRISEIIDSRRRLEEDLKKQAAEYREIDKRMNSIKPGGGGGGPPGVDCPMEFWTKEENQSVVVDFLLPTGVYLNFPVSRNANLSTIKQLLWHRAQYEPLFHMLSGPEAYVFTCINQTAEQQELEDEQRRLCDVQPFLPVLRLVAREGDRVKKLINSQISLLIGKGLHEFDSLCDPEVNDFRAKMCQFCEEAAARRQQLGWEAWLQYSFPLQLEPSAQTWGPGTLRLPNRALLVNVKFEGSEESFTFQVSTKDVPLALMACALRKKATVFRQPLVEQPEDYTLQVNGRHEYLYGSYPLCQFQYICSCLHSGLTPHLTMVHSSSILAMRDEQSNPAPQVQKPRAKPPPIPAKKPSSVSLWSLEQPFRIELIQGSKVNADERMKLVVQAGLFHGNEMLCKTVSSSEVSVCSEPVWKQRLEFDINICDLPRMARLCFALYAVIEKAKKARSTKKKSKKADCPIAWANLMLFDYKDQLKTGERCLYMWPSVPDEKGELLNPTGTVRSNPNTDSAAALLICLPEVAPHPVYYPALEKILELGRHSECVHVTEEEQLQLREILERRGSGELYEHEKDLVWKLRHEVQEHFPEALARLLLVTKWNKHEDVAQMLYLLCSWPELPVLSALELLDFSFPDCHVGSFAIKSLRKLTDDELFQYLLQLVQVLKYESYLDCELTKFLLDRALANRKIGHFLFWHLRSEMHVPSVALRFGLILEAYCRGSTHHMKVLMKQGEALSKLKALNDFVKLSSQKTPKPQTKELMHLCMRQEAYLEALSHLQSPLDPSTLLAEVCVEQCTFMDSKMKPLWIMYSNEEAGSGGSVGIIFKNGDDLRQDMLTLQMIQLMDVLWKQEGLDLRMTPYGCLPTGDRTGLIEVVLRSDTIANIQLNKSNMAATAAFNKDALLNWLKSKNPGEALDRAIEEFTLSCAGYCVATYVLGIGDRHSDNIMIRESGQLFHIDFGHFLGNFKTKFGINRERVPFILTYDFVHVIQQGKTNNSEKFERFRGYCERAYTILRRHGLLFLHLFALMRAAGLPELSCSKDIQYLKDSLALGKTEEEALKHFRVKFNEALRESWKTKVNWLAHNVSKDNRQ
How it was run: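 Preferred format: PI3Kδ 10 nM with PI 10 μg/mL and ATP 1 μM in Tris 10 mM pH 7.5, MgCl2 3 mM, NaCl 50 mM, CHAPS, DTT; 60 min at RT, 8 concentrations. ATP depletion read by Kinase-Glo luminescence; IC50 from four-parameter logistic fit.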

T1 sequence (P42336 with tags, fused parts or gaps limits assumed): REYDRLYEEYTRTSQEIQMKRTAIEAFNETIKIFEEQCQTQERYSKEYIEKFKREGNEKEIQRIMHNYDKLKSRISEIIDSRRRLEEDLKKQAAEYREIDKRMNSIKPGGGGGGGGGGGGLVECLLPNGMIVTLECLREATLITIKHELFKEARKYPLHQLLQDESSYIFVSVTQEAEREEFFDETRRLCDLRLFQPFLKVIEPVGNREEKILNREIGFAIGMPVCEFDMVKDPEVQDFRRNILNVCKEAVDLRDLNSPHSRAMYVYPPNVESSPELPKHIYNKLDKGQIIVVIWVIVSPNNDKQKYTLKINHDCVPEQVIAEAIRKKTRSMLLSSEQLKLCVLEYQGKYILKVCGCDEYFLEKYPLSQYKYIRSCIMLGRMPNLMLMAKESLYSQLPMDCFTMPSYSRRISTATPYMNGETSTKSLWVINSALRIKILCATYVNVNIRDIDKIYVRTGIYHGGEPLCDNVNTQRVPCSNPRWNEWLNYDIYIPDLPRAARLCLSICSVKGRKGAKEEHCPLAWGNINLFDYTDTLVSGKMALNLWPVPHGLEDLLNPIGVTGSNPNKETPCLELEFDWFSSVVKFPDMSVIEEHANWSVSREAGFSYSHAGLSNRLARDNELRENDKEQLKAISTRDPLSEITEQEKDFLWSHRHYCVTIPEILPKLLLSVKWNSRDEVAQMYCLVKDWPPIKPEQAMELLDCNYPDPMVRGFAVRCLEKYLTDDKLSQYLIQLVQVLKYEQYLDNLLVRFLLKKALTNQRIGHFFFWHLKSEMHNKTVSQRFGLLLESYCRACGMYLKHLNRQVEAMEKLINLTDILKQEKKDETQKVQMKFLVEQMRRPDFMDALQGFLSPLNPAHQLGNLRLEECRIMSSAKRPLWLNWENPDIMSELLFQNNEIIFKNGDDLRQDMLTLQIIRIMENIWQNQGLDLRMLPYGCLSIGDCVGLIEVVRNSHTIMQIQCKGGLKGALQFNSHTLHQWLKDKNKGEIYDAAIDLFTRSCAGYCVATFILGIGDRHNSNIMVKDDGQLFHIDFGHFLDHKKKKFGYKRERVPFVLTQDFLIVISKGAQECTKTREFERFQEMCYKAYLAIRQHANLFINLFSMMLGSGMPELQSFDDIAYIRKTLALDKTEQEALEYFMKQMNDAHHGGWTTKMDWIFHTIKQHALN

IC50 [1] | IC50 [2] | SMILES
1360 nM | 5 nM | COc1ncc(-c2ccnc3ccc(O[C@H]4CCN(C(=O)[C@@H]5CCN(C(C)=O)C5)C4)cc23)cc1C [Example A10, 1-((R)-3-{(S)-3-[4-(6-Methoxy-5-methyl-pyridin-3-yl)-quinolin-6-yloxy]-pyrrolidine-1-carbonyl}-pyrrolidin-1-yl)-ethanone]
821 nM | 12 nM | CCC(=O)N1CC[C@H](Oc2ccc3nccc(-c4cnc(S(C)(=O)=O)c(C)c4)c3c2)C1 [Example A25, 1-{(S)-3-[4-(6-Methanesulfonyl-5-methyl-pyridin-3-yl)-quinolin-6-yloxy]-pyrrolidin-1-yl}-propan-1-one]
53 nM | 4 nM | COc1ncc(-c2ccnc3ccc(O[C@H]4CCN(C(=O)C5CCS(=O)(=O)CC5)C4)cc23)cc1C(F)F [Example A6, {(S)-3-[4-(5-Difluoromethyl-6-methoxy-pyridin-3-yl)-quinolin-6-yloxy]-pyrrolidin-1-yl}-(1,1-dioxo-hexahydro-1lambda*6*-thiopyran-4-yl)-methanone]
186 nM | 7 nM | COc1ncc(-c2ccnc3ccc(O[C@H]4CCN(C(=O)C5CCS(=O)(=O)CC5)C4)cc23)cc1C [Example A15, (1,1-Dioxo-hexahydro-1lambda*6*-thiopyran-4-yl)-{(S)-3-[4-(6-methoxy-5-methyl-pyridin-3-yl)-quinolin-6-yloxy]-pyrrolidin-1-yl}-methanone]
498 nM | 5 nM | COc1ncc(-c2ccnc3ccc(O[C@H]4CCN(C(=O)C5CCS(=O)(=O)CC5)C4)c(C)c23)cc1C [Example B3, (1,1-Dioxo-hexahydro-1lambda*6*-thiopyran-4-yl)-{(S)-3-[4-(6-methoxy-5-methyl-pyridin-3-yl)-5-methyl-quinolin-6-yloxy]-pyrrolidin-1-yl}-methanone]
67 nM | 12 nM | COc1ncc(-c2ccnc3ccc(O[C@H]4CCN(C(=O)[C@@H]5CCN(C(C)=O)C5)C4)cc23)cc1C(F)F [Example A24, 1-((R)-3-{(S)-3-[4-(5-Difluoromethyl-6-methoxy-pyridin-3-yl)-quinolin-6-yloxy]-pyrrolidine-1-carbonyl}-pyrrolidin-1-yl)-ethanone]
5680 nM | 332 nM | Cc1cc(-c2ccnc3cc(F)c(O[C@H]4CCN(C(=O)C5CCOCC5)C4)cc23)cnc1S(C)(=O)=O [Example C2, {(S)-3-[7-Fluoro-4-(6-methanesulfonyl-5-methyl-pyridin-3-yl)-quinolin-6-yloxy]-pyrrolidin-1-yl}-(tetrahydro-pyran-4-yl)-methanone]
63 nM | 5 nM | COc1ncc(-c2ccnc3ccc(O[C@H]4CCN(C(=O)[C@@H]5CCN(C(C)=O)C5)C4)c(C)c23)cc1C(F)F [Example B1, 1-((R)-3-{(S)-3-[4-(5-Difluoromethyl-6-methoxy-pyridin-3-yl)-5-methylquinolin-6-yloxy]-pyrrolidine-1-carbonyl}-pyrrolidin-1-yl)-ethanone]
77 nM | < 3 nM | COc1ncc(-c2ccnc3ccc(O[C@H]4CCN(C(=O)C5CCS(=O)(=O)CC5)C4)cc23)cc1Cl [Example A1, {(S)-3-[4-(5-Chloro-6-methoxy-pyridin-3-yl)-quinolin-6-yloxy]-pyrrolidin-1-yl}-(1,1-dioxo-hexahydro-1lambda*6*-thiopyran-4-yl)-methanone]
3110 nM | 302 nM | COc1ncc(-c2ccnc3cc(F)c(O[C@H]4CCN(C(=O)C5CCS(=O)(=O)CC5)C4)cc23)cc1C [Example C1, (1,1-Dioxo-hexahydro-1lambda*6*-thiopyran-4-yl)-{(S)-3-[7-fluoro-4-(6-methoxy-5-methyl-pyridin-3-yl)-quinolin-6-yloxy]-pyrrolidin-1-yl}-methanone]
